Data reported in patent US9771378B2 (Denali Therapeutics, Inc., priority 2014, dated 2017).

System: Aβ42 (human neuroglioma H4 cells expressing human wild type APP751)
Experiment: In vitro cell screening assay with sandwich ELISA quantification of Aβ42 peptide
Type: cell-based
Conditions: H4 cells stably expressing human wild type APP751; Pro293 chemically defined medium; compounds 0.003-10 μM; incubated overnight (16-18 h); supernatant Aβ42 by sandwich ELISA; normalized to DMSO and DAPT; read-out: Aβ42 H4 Prot Fre IC50
Protocol: Human neuroglioma H4 cells were transfected with a pcDNA3.1 plasmid expressing human wild type APP751 cDNA and a stable cell line was generated using G418 selection. Cells are plated at 15,000 cells/well in Costar 96-well plates and placed at 37° C. and 5% CO2. Six hours after plating, cells are washed three times with Pro293™ chemically defined medium, followed by addition of compounds (0.003-10 μM, final DMSO concentration of 0.33%). Plates were incubated overnight (16-18 h) and supernatant was removed for quantification of AP peptides by sandwich ELISA. Cytotoxicity was evaluated using Cell-Titer 96W AQueous One Solution Cell Proliferation Assay according to the manufacturer's protocol.
ELISA Measurements of Aβ Peptides
Aβ peptide levels were quantified by sandwich ELISA. 96-well plates are coated with C-terminal specific Aβ antibodies recognizing either Aβ37, Aβ38, Aβ40, Aβ42, Aβ43 or a N-terminal specific Aβ antibody to detect Aβ 1-x. Plates are then blocked overnight at 4° C. with 1% bovine serum albumin (BSA) in PBS-T. Plates are washed and 100 μl of cultured cell supernatant or synthetic Aβ peptide standards and a detection antibody (4G8-HRP) are applied to the blocked plate and incubated overnight at 4° C. The next day, wells are washed before the addition […] of detection substrate (TMB peroxidase). Plates are then read for absorbance at 450 nm on a Molecular Devices SpectraMax M5e Microplate Reader.
IC50 values were calculated from values reported as percent of DMSO controls using nonlinear regression, based on a sigmoidal dose-response (variable slope) model. GraphPAD software from Prism used for calculation.

Row | SMILES | IC50 [nM]
1 | COc1cc(Nc2ncc3c(n2)N(C)C(c2ccc(F)cc2Cl)CO3)ccc1-n1cnc(C)c1 (racemic) [Example 53] | 37
2 | Cc1cn(-c2ccc(Nc3ncc4c(n3)N(C)C(c3cc(F)c(F)c(F)c3)CO4)cc2)cn1 (single isomer, unassigned; (-)) [Example 115A] | 2860
3 | COc1cc(Nc2ncc3c(n2)N(C)C(c2ccc(F)cc2F)CO3)ccc1-n1cnc(C)c1 (single isomer, unassigned; (-)) [Example 48A] | 328
4 | COc1cc(Nc2ncc3c(n2)N2CCC[C@@]2(C)CO3)ccc1-n1cnc(C)c1 [Example 291, (S)-N-(3-methoxy-4-(4-methyl-1H-imidazol-1-yl)phenyl)-6a-methyl-6a, 7,8,9-tetrahydro-6H-pyrimido [5,4-b] pyrrolo [1,2-d] [1, 4] oxazin-2-amine] | 131
5 | Cc1cn(-c2ncc(Nc3ncc4c(n3)N(C)C(C(F)(F)F)CO4)cc2Cl)cn1 (single isomer, unassigned; (-)) [Example 229A] | 215
6 | COc1cc(Nc2ncc3c(n2)N(C)C2(CC2)CO3)ccc1-n1cnc(C)c1 [Example 257] | 49
7 | COc1cc(Nc2ncc3c(n2)N(C)C(c2cc(F)c(F)c(F)c2)CO3)cnc1-n1cnc(C)c1 (single isomer, unassigned; (+)) [Example 182A] | 13
8 | COc1cc(Nc2ncc3c(n2)N(C)C(c2cc(F)c(F)cc2F)CO3)ccc1-n1cnc(C)c1 (single isomer, unassigned; (-)) [Example 97A] | 244
9 | Cc1cn(-c2ccc(Nc3ncc4c(n3)N(C)C(c3cc(F)c(F)cc3F)CO4)cc2F)cn1 (single isomer, unassigned; (-)) [Example 98B] | 2100
10 | COc1cc(Nc2ncc3c(n2)N(C)C(C)(C)CO3)ccc1-n1cnc(C)c1 [Example 254] | 54
11 | Cc1cn(-c2ccc(Nc3ncc4c(n3)N(C)C(c3cc(F)c(F)cc3Cl)CO4)cc2F)cn1 (single isomer, unassigned; (+)) [Example 169A] | 45
12 | COc1ccc(C2COc3cnc(Nc4ccc(-n5cnc(C)c5)c(OC)c4)nc3N2C)c(C)c1 (single isomer, unassigned; (-)) [Example 199B] | 95
13 | COc1cc(Nc2ncc3c(n2)N(C)C(c2ccccc2Cl)CO3)ccc1-c1ccnc(C)c1 (single isomer, unassigned; (+)) [Example 85B] | 130
14 | COc1cc(Nc2ncc3c(n2)N(C)C(C)CO3)cnc1-n1cnc(C)c1 (single isomer, unassigned; (-)) [Example 185B] | 540
15 | COc1ccc(C)c(C2COc3cnc(Nc4cnc(-n5cnc(C)c5)c(OC)c4)nc3N2C)c1 (single isomer, unassigned; (-)) [Example 207B] | 96
16 | COc1cc(Nc2ncc3c(n2)N(C)C(c2cc(F)c(F)c(F)c2)CO3)cnc1-n1cnc(C)c1 (single isomer, unassigned; (-)) [Example 182B] | 176
17 | Cc1cn(-c2ccc(Nc3ncc4c(n3)N(C)C(c3cc(Cl)ccc3C(F)(F)F)CO4)cc2F)cn1 (single isomer, unassigned; (+)) [Example 100A] | 101
18 | COc1cc(Nc2ncc3c(n2)N(C)C(C(F)(F)F)CO3)ccc1-n1cnc(C)c1 (single isomer, unassigned; (-)) [Example 187B] | 33
19 | Cc1cn(-c2ccc(Nc3ncc4c(n3)N(C)C(C)CO4)cc2OC(F)(F)F)cn1 (single isomer, unassigned; (+)) [Example 213B] | > 3000
20 | CN1c2nc(Nc3ccc(C#N)cc3)ncc2OCC1c1cc(F)cc(F)c1 (single isomer, unassigned; (-)) [Example 233B, (−)-4-((7-(3,5-difluorophenyl)-8-methyl-7,8-dihydro-6H-pyrimido [5,4-b] [1, 4]oxazin-2-yl)amino) benzonitrile] | > 3000
21 | COc1cc(Nc2ncc3c(n2)N(C)C(CC(F)(F)F)CO3)cnc1-n1cnc(C)c1 (single isomer, unassigned; (-)) [Example 238A] | 648
22 | Cc1cc(-c2ccc(Nc3ncc4c(n3)N(C)C(c3ccccc3C)CO4)cc2F)ccn1 (single isomer, unassigned; (+)) [Example 32B] | 131
23 | COc1cc(Nc2ncc3c(n2)N2CC(F)(F)C[C@H]2CO3)ccc1-n1cnc(C)c1 [Example 297, (S)-8,8-difluoro-N-(3-methoxy-4-(4-methyl-1H-imidazol-1-yl)phenyl)-6a, 7,8,9-tetrahydro-6H-pyrimido [5,4-b] pyrrolo [1,2-d] [1, 4] oxazin-2-amine] | 99

Row | SMILES | IC50 [nM]
24 | COc1cc(Nc2ncc3c(n2)N(C)C(C)CO3)ccc1-n1cnc(Cl)c1 (single isomer, unassigned; (+)) [Example 202B] | 63
25 | Cc1cc(-c2ccc(Nc3ncc4c(n3)N(C)C(c3ccccc3C)CO4)cc2)ccn1 (single isomer, unassigned; (+)) [Example 29B] | 68
26 | Cc1cn(-c2ccc(Nc3ncc4c(n3)N(C)C(C(F)(F)F)CO4)cc2C#N)cn1 (single isomer, unassigned; (-)) [Example 232B, (−)-2-(4-methyl-1H-imidazol-1-yl)-5-((8-methyl-7-(trifluoromethyl)-7,8-dihydro-6H-pyrimido [5,4-b] [1, 4]oxazin-2-yl)amino) benzonitrile] | 17
27 | Cc1cc(-c2ccc(Nc3ncc4c(n3)N(C)C(c3cc(F)cc(F)c3)CO4)cc2F)ccn1 (single isomer, unassigned; (-)) [Example 41B] | 1260
28 | Cc1cc(-c2ccc(Nc3ncc4c(n3)N(C)C(c3cc(F)c(F)c(F)c3)CO4)cc2F)ccn1 (racemic) [Example 36] | 162
29 | Cc1cn(-c2ccc(Nc3ncc4c(n3)N(C)C3(CC3)CO4)cc2F)cn1 [Example 258] | 324
30 | Cc1cn(-c2ccc(Nc3ncc4c(n3)N(C)C3(CCCC3)CO4)cc2F)cn1 [Example 279] | 254
31 | COc1cc(Nc2ncc3c(n2)N(C)C(c2cc(F)cc(F)c2)CO3)ccc1C#N (single isomer, unassigned; (+)) [Example 237B, (+)-4-((7-(3,5-difluorophenyl)-8-methyl-7,8-dihydro-6H-pyrimido [5,4-b] [1, 4]oxazin-2-yl)amino)-2-methoxybenzonitrile] | 226
32 | Cc1cc(-c2ccc(Nc3ncc4c(n3)N(C)C(c3cc(F)c(F)c(F)c3)CO4)cc2)ccn1 (single isomer, unassigned; (-)) [Example 37B] | 1540
33 | COc1cc(Nc2ncc3c(n2)N(C)C(C)CO3)ccc1-n1cnc(Cl)c1 (single isomer, unassigned; (-)) [Example 202A] | 167
34 | COc1cc(Nc2ncc3c(n2)N(C)C(C)CO3)ccc1-n1cnc(C)c1 (racemic) [Example 52] | 205
35 | COc1cc(Nc2ncc3c(n2)N2CCCC2CO3)ccc1-n1cnc(C)c1 (single isomer, unassigned; (-)) [Example 290A, (−)-N-(3-methoxy-4-(4-methyl-1H-imidazol-1-yl)phenyl)-6a, 7,8,9-tetrahydro-6H-pyrimido [5,4-b] pyrrolo [1,2-d] [1, 4] oxazin-2-amine] | 71
36 | Cc1cc(-c2ccc(Nc3ncc4c(n3)N(C)C(c3ccccc3)CO4)cc2F)ccn1 (racemic) [Example 27] | 374
37 | COc1cc(Nc2ncc3c(n2)N(C)C(c2ccccc2C)CO3)ccc1-c1ccnc(C)c1 (single isomer, unassigned; (-)) [Example 35A] | 355
38 | COc1cc(Nc2ncc3c(n2)N(C)C(C2CCOCC2)CO3)ccc1-n1cnc(C)c1 (racemic) [Example 50] | 173
39 | COc1cc(Nc2ncc3c(n2)N(C)C(c2cc(F)cc(F)c2)CO3)ccc1-n1cnc(C)c1 (single isomer, unassigned; (-)) [Example 30A] | 177
40 | Cc1cc(-c2ccc(Nc3ncc4c(n3)N(C)C(c3ccccc3)CO4)cc2)ccn1 (single isomer, unassigned; (+)) [Example 24A] | 68
41 | Cc1cn(-c2ccc(Nc3ncc4c(n3)N(C)C(c3cc(F)c(F)cc3C(F)(F)F)CO4)cc2F)cn1 (single isomer, unassigned) [Example 198B] | 101
42 | COc1cc(Nc2ncc3c(n2)N(C)C(c2ccccc2C)CO3)ccc1-n1cnc(C)c1 (single isomer, unassigned; (-)) [Example 31A] | 138
43 | COc1ccc(C)c(C2COc3cnc(Nc4ccc(-n5cnc(C)c5)c(OC)c4)nc3N2C)c1 (racemic) [Example 90] | 27
44 | COc1cc(Nc2ncc3c(n2)N(C)C(c2ccc(F)cc2F)CO3)ccc1-n1cnc(C)c1 (racemic) [Example 48] | 36
45 | COc1cc(Nc2ncc3c(n2)N(C)C(c2ccc(Cl)cc2Cl)CO3)ccc1-n1cnc(C)c1 (single isomer, unassigned; (+)) [Example 95B] | 15
